Reference: patent US8338594B2, “Pyrrolotriazine derivatives useful for treating cancer through inhibition of aurora kinase” (Bayer HealthCare LLC, priority 2005, dated 2012)
Values belong to the compound of their own block, whether it stands above or below them.

Assays:
Aurora Kinase 1 = biological target: T1, Aurora Kinase 1 (Homo sapiens, UniProt Q96GD4); assay: capture ELISA measuring Aurora Kinase 1 autophosphorylation in HT29 colon carcinoma cells; format: cell-based; settings: HT29 cells synchronized for 24 hours, compound treatment 2 hours
T1 construct: endogenous in cells; host or cells: HT29 colon carcinoma cells
T1 sequence (Q96GD4 whole entry): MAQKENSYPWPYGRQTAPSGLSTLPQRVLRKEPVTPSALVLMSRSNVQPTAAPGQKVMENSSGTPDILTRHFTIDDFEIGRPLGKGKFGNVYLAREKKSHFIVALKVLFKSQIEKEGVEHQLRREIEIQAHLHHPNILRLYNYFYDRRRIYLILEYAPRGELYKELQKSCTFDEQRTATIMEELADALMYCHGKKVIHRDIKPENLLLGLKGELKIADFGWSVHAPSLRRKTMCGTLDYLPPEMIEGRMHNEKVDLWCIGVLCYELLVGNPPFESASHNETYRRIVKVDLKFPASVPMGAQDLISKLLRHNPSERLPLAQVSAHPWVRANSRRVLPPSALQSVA
Description: To determine the ability of compounds to inhibit Aurora Kinase 1 activity in cells, a capture ELISA measuring Aurora Kinase 1 autophosphorylation was developed in HT29 colon carcinoma cells (Yasui Y, et al 2004). Briefly, 15,000 cells/well were seeded in a 96-well collagen coated plates in RPMI+10% FBS and incubated at 37° C. in 5% CO2 overnight. The following day, the cells were treated with 166 nM nacadazole compounds for 24 hours at 37° C. Synchronized cells were further treated with compounds for 2 hours. Compound dilutions were prepared from 0.1 mM DMSO stocks such that 1.1 μL of each dilution was added to obtain a final concentration ranging from 10 μM to 13 nM in one-third log steps. Following compound treatment, plates were centrifuged at 1000 rpm for 2 minutes and washed twice with 100 μL of cold sterile TBS. Cells were then lysed (100 μL of 150 mM NaCl, 20 mM Tris, pH 7.5, 1 mM EDTA, 1 mM EGTA, 1% Triton-x-100 plus protease and phosphatase inhibitors) by shaking at 4° C. for 1 hour. Cell lysates were transferred to plates pre-coated with anti-phospho mAur1 (Rockland, 600-401-677) and blocked with 5% blocker A in TBS from Meso Scale Discovery. After incubating for 1 hour at RT, plates were washed with 300 μL of TBST for a total of three times. The supernatant was removed and replaced with 50 μL of diluted primary antibody (anti-Aurora Kinase 1, Pharmingen, 611083) at 1:1000 in 2% blocker A in TBS and incubated at room temperature for 1 hour. The antibody buffer was removed from each well and washed three times with 300 μL of cold TBS-T ([…] Tris pH 8.0, 138 mM NaCl, 2.7 mM KCL, 0.05% Tween 20). The wash buffer was replaced with 50 μL of secondary antibody (Sulfa TAG anti-mouse, Meso Scale Discovery) at 1:1000 in 2% blocker A and incubated at room temperature for 1 hour. For the final readout with the Sector 6000, 150 μL of reading buffer T was added and the plates were read immediately.

[1] = biological target: T2, murine Aurora Kinase 2 (mAur2) (Mus musculus, UniProt P97477); assay: murine Aurora Kinase 2 (mAur2) biochemical Scintillation Proximity Assay; settings: SPA, biotinylated Peptide 830, 1 μM ATP, 20 nM His-tagged mAur2
T2 construct: N-terminal His-tagged mAur2 (amino acids 98-395; DRT, Protein Sciences); His (N); made in house
T2 sequence (P97477 98-395): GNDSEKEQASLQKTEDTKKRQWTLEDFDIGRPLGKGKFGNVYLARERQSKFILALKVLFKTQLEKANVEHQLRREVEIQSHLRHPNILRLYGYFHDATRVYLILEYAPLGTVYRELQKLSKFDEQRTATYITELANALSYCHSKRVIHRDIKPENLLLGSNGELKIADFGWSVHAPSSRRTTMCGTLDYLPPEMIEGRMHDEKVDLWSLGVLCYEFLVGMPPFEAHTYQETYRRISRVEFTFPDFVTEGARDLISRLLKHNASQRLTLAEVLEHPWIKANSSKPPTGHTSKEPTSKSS
Description: (§1) Using a Scintillation Proximity Assay (SPA) format, the murine Aurora Kinase 1 (mAur1) and murine Aurora Kinase 2 (mAur2) biochemical assay measures the ability of mAur2 to phosphorylate the substrate, biotinylated Peptide 830 (DRT, Protein Sciences). Once radiolabeled by the enzyme, the biotinylated substrate is captured on streptavidin-coated SPA beads and the radioactivity, in proximity to the SPA beads, is measured. For the generation of IC50 curves, the reaction was performed in 96-well isoplates (Wallac 1450-514) under the following conditions: a 10 mM stock solution of compound (in 100% dimethylsulfoxide; DMSO) was diluted 10 fold in 100% DMSO. Compounds were then serially diluted, 1:5, for an eight point dose curve, in 100% DMSO. A volume of 1 μL of the diluted compound was added to the reaction buffer that consisted of 25 mM HEPES pH 7.5, 1 mM MnCl2, 1 mM MgCl2, 1 mM DTT, 0.01% Tween20. A mixture with a final concentration per well of 1 μM cold ATP, 0.1 μCi ^33P-ATP (Amersham AH9968) and 1 μM biotinylated Peptide 830 was then added. The reaction was initiated with the addition of either recombinant, GST-tagged mAur 1 (amino acids 67-345) that was co-expressed with human INCENP (amino acids 704-919) (DRT, Protein Sciences) at a final concentration of 12 nM or N-terminal His-tagged mAur2 (amino acids 98-395; DRT, Protein Sciences) at a final concentration of 20 nM. The final reaction volume in each well was 100 μL and the final compound concentration ranged from 10 μM-[…] in 1% DMSO. The reaction mixture was allowed to incubate for 1-2 hours with gentle agitation at 25° C. To terminate the reaction, streptavidin-coated SPA beads (Amersham RPNQ0007; 50 μL of 0.5 mg beads dissolved in 165 mM EDTA) were then added to each well and incubation proceeded for an additional 15 minutes at 25° C. The plate was then centrifuged for ten minutes at 2000 rpm. Phosphorylation of the peptide substrate was measured using a Wallac 1450 Microbeta Plus Liquid Scintillation Counter.

[2] = biological target: T3, murine Aurora Kinase 1 (mAur1) (Mus musculus, UniProt O70126); assay: murine Aurora Kinase 1 (mAur1) biochemical Scintillation Proximity Assay; settings: SPA, biotinylated Peptide 830, 1 μM ATP, 12 nM GST-tagged mAur 1 co-expressed with human INCENP
T3 construct: recombinant, GST-tagged mAur 1 (amino acids 67-345) that was co-expressed with human INCENP; GST; made in house
T3 sequence (O70126 67-345): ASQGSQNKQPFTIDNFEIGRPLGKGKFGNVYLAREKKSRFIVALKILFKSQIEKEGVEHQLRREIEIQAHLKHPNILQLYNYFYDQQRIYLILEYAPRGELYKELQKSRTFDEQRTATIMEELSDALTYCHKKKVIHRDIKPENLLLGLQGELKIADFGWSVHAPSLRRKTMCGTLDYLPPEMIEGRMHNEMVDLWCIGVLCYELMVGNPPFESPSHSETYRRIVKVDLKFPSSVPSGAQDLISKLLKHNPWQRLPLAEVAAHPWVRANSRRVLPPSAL
T3 sequence (Q9NQS7 704-918 partner): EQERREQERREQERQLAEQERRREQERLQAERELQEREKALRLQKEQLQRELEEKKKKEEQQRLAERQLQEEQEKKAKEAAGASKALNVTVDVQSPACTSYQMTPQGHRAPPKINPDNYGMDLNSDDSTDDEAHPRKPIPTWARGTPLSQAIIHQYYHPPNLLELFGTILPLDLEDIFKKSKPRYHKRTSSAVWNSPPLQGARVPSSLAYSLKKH
Description: as §1

Compound: CC(C)(C)c1ccc2nc(Nc3ccc(-c4c(C(=O)NCC(F)(F)F)cn5ncnc(N)c45)cc3)[nH]c2c1 [Example 10, 4-amino-5-{4-[(6-tert-butyl-1H-benzimidazol-2-yl)amino]phenyl}-N-(2,2,2-trifluoroethyl)pyrrolo[2,1-f][1,2,4]triazine-6-carboxamide]
IC50 (Aurora Kinase 1): < 1000 nM

Compound: Nc1ncnn2cc(C(=O)NCC(F)(F)F)c(-c3ccc(Nc4nc5ccc(N6CCCC6)nc5[nH]4)cc3)c12 [Example 20, 4-amino-5-{4-[(5-pyrrolidin-1-yl-3H-imidazo[4,5-b]pyridin-2-yl)amino]phenyl}-N-(2,2,2-trifluoroethyl)pyrrolo[2,1-f][1,2,4]triazine-6-carboxamide]
IC50 (Aurora Kinase 1): < 1000 nM

Compound: Nc1ncnn2cc(C(=O)NCC(F)(F)F)c(-c3ccc(Nc4nc5ccc(Oc6ccccc6)c(F)c5[nH]4)cc3)c12 [Example 32, 4-amino-5-{4-[(7-fluoro-6-phenoxy-1H-benzimidazol-2-yl)amino]phenyl}-N-(2,2,2-trifluoroethyl)pyrrolo[2,1-f][1,2,4]triazine-6-carboxamide]
IC50 (Aurora Kinase 1): < 1000 nM

Compound: Nc1ncnn2cc(C(=O)NCC(F)(F)F)c(-c3ccc(Nc4nc5ccc(Oc6ccccc6F)c(F)c5[nH]4)cc3)c12 [Example 39, 4-amino-5-(4-{[7-fluoro-6-(2-fluorophenoxy)-1H-benzimidazol-2-yl]amino}phenyl)-N-(2,2,2-trifluoroethyl)pyrrolo[2,1-f][1,2,4]triazine-6-carboxamide]
IC50 [1]: < 100 nM
IC50 [2]: < 100 nM

Compound: Nc1ncnn2cc(C(=O)NCC(F)(F)F)c(-c3ccc(Nc4nc5ccc(Oc6cccc(F)c6)c(F)c5[nH]4)cc3)c12 [Example 40, 4-amino-5-(4-{[7-fluoro-6-(3-fluorophenoxy)-1H-benzimidazol-2-yl]amino}phenyl)-N-(2,2,2-trifluoroethyl)pyrrolo[2,1-f][1,2,4]triazine-6-carboxamide]
IC50 [1]: < 100 nM
IC50 [2]: < 100 nM

Compound: COCCNC(=O)c1cn2ncnc(N)c2c1-c1ccc(Nc2nc3ccc(Oc4ccccc4)c(F)c3[nH]2)cc1 [Example 110, 4-amino-5-{4-[(7-fluoro-6-phenoxy-1H-benzimidazol-2-yl)amino]phenyl}-N-(2-methoxyethyl)pyrrolo[2,1-f][1,2,4]triazine-6-carboxamide]
IC50 [1]: < 100 nM
IC50 [2]: < 100 nM

Now from value to compound:

IC50 (Aurora Kinase 1): < 1000 nM
IC50 [1]: < 100 nM
IC50 [2]: < 100 nM
Compound: CNC(=O)c1cn2ncnc(N)c2c1-c1ccc(Nc2nc3ccc(Oc4ccccc4)c(F)c3[nH]2)cc1 [Example 102, 4-amino-5-{4-[(7-fluoro-6-phenoxy-1H-benzimidazol-2-yl)amino]phenyl}-N-methylpyrrolo[2,1-f][1,2,4]triazine-6-carboxamide]

IC50 (Aurora Kinase 1): < 1000 nM
Compound: Nc1ncnn2cc(C(=O)NCC(F)(F)F)c(-c3ccc(Nc4nc5ccc(Oc6ccc(F)cc6)c(F)c5[nH]4)cc3)c12 [Example 35, 4-amino-5-(4-{[7-fluoro-6-(4-fluorophenoxy)-1H-benzimidazol-2-yl]amino}phenyl)-N-(2,2,2-trifluoroethyl)pyrrolo[2,1-f][1,2,4]triazine-6-carboxamide]

IC50 (Aurora Kinase 1): < 1000 nM
Compound: Nc1ncnn2cc(C(=O)NCC(F)(F)F)c(-c3ccc(Nc4nc5ccc(OC(F)(F)F)cc5[nH]4)cc3)c12 [Example 31, 4-amino-N-(2,2,2-trifluoroethyl)-5-(4-{[6-(trifluoromethoxy)-1H-benzimidazol-2-yl]amino}phenyl)pyrrolo[2,1-f][1,2,4]triazine-6-carboxamide]

IC50 (Aurora Kinase 1): < 1000 nM
IC50 [1]: < 100 nM
IC50 [2]: < 100 nM
Compound: Nc1ncnn2cc(C(=O)NCC(F)(F)F)c(-c3ccc(Nc4nc5cc6c(cc5[nH]4)OC(F)(F)O6)cc3)c12 [Example 17, 4-amino-5-{4-[(2,2-difluoro-5H-[1,3]dioxolo[4,5-f]benzimidazol-6-yl)amino]phenyl}-N-(2,2,2-trifluoroethyl)pyrrolo[2,1-f][1,2,4]triazine-6-carboxamide]

IC50 (Aurora Kinase 1): < 1000 nM
IC50 [1]: < 100 nM
IC50 [2]: < 100 nM
Compound: Nc1ncnn2cc(C(=O)NCC(F)(F)F)c(-c3ccc(Nc4nc5ccc(NC6CCC6)nc5[nH]4)cc3)c12 [Example 47, 4-amino-5-(4-{[5-(cyclobutylamino)-3H-imidazo[4,5-b]pyridin-2-yl]amino}phenyl)-N-(2,2,2-trifluoroethyl)pyrrolo[2,1-f][1,2,4]triazine-6-carboxamide]

IC50 (Aurora Kinase 1): < 1000 nM
IC50 [1]: < 100 nM
IC50 [2]: < 100 nM
Compound: CC(C)(C)NC(=O)c1cn2ncnc(N)c2c1-c1ccc(Nc2nc3cc(F)cc(F)c3[nH]2)cc1 [Example 72, 4-amino-N-(tert-butyl)-5-{4-[(5,7-difluoro-1H-benzimidazol-2-yl)amino]phenyl}pyrrolo[2,1-f][1,2,4]triazine-6-carboxamide]
